Molecular target: T1, human Glycogen Synthase Kinase-3 beta (hGSK-3β) (Homo sapiens, UniProt P49841)
T1 construct: purchased Upstate cell signaling solutions
Experiment: Biochemical hGSK-3beta assay (33P-ATP phosphorylation of biotinylated peptide substrate)
Settings: 10 μM ATP, 1 μM substrate, 30 minutes at room temperature; read-out: GSK-3β IC50
Method: Methods—Biochemical hGSK-3Beta Assay
Compounds were tested for their ability to inhibit human Glycogen Synthase Kinase-3 beta (hGSK-3β) to phosphorylate biotin-[…](pS)EDEEE. Compounds were incubated with 0.5 μCi 33P-ATP, 10 μM ATP, 0.0125U hGSK-3β (Upstate cell signaling solutions) and 1 μM substrate (biotin-[…](pS)EDEEE) in 50 mM HEPES, 10 mM MgCl2, […], 1 mM DTT, 0.0075% Triton, 2% DMSO (total volume 50 μL) for 30 minutes at room temperature. The incubation was stopped by addition of an equal volume of 100 mM EDTA, 4M NaCl. 80 μL of this mixture was added to streptavidin-coated Flashplates (PerkinElmer). Following a wash step, 33P incorporation was quantified on a MicroBeta microplate liquid scintillation counter (PerkinElmer). IC50s were determined by fitting a sigmoidal dose-response curve to the counts obtained at the different concentrations in GraphPad Prism.

T1 sequence (P49841 whole entry): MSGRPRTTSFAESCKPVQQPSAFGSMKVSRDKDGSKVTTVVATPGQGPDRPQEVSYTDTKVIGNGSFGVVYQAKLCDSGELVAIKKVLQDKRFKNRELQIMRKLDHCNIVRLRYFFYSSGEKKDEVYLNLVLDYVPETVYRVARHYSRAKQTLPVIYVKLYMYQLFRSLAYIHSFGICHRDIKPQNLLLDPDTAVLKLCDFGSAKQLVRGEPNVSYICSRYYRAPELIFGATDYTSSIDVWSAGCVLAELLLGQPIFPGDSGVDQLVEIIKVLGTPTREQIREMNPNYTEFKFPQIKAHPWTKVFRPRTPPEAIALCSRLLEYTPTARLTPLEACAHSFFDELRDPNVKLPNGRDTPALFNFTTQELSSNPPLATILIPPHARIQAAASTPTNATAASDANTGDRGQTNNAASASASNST

IC50 [µM] | Structure (SMILES)
0.1 to 10 | O=C(Nc1cnccn1)Nc1ccnc2cc(N3C[C@@H]4C[C@H]3CN4)ccc12 [Example 7, 1-(7-((1S,4S)-2,5-Diazabicyclo[2.2.1]heptan-2-yl)quinolin-4-yl)-3-(pyrazin-2-yl)urea]
0.1 to 10 | CC(C)(C)OC(=O)N1C[C@@H]2C[C@H]1CN2c1ccc2nccc(NC(=O)Nc3cnccn3)c2c1 [Example 11, (1S,4S)-Tert-butyl 5-(4-(3-pyrazin-2-ylureido)quinolin-6-yl)-2,5-diazabicyclo[2.2.1]heptane-2-carboxylate]
0.1 to 10 | O=C(Nc1cnccn1)Nc1ccnc2cc(N3CC4CCNC4C3)ccc12 (stereo not shown) [Example 12, 1-(7-(Hexahydropyrrolo[3,4-b]pyrrol-5(1H)-yl)quinolin-4-yl)-3-(pyrazin-2-yl)urea]
0.1 to 10 | CC(C)(C)OC(=O)N1C[C@@H]2CN(c3ccc4c(NC(=O)Nc5cnccn5)ccnc4c3)C[C@@H]2C1 [Example 1, (3aR,6aS)-Tert-butyl 5-(4-(3-pyrazin-2-ylureido)quinolin-7-yl)-hexahydropyrrolo[3,4-c]pyrrole-2(1H)-carboxylate]

More lines, now with the values behind:

Structure (SMILES) | IC50 [µM]
COc1ccc2c(NC(=O)Nc3cccc(N4CC5COCC5C4)n3)ccnc2c1 (stereo not shown) [Example 9, 1-(6-(Dihydro-1H-furo[3,4-c]pyrrol-5(3H,6H,6aH)-yl)pyridin-2-yl)-3-(7-methoxyquinolin-4-yl)urea] | < 0.1
COc1ccc2c(NC(=O)Nc3cccc(N4C[C@@H]5C[C@H]4CO5)n3)ccnc2c1 [Example 10, 1-(6-((1S,4S)-2-Oxa-5-azabicyclo[2.2.1]heptan-5-yl)pyridin-2-yl)-3-(7-methoxyquinolin-4-yl)urea] | < 0.1
COc1ccc2c(NC(=O)Nc3cncc(N4C[C@H]5CN(C(=O)OC(C)(C)C)C[C@H]5C4)n3)ccnc2c1 [Example 3, (3aR,6aS)-tert-butyl 5-(6-(3-(7-methoxyquinolin-4-yl)ureido)pyrazin-2-yl)-hexahydropyrrolo[3,4-c]pyrrole-2(1H)-carboxylate] | 0.1 to 10

— patent US8455648B2, “1-(7-(hexahydropyrrolo [3,4-c] pyrrol-2 (1H)-yl) quinolin-4-yl) -3- (pyrazin-2-yl) urea derivatives and related compounds as glycogen synthase kinase 3 (GSK-3)” (Abbott GmbH & Co. KG, priority 2008, dated 2013)
